Results on eight compounds are retold here after US20260138961A1, “MODULATORS OF MITOCHONDRIAL DNA REPLICATION” (Pretzel Therapeutics, Inc., priority 2022, published 2026).

What is called AC50 is the midpoint of the concentration-response curve, whichever way the signal moves.

One test concerns the target T1, wild type human POLγ (POLγA:WT) (Homo sapiens, UniProt P54098).
T1 sequence (P54098 1-1239): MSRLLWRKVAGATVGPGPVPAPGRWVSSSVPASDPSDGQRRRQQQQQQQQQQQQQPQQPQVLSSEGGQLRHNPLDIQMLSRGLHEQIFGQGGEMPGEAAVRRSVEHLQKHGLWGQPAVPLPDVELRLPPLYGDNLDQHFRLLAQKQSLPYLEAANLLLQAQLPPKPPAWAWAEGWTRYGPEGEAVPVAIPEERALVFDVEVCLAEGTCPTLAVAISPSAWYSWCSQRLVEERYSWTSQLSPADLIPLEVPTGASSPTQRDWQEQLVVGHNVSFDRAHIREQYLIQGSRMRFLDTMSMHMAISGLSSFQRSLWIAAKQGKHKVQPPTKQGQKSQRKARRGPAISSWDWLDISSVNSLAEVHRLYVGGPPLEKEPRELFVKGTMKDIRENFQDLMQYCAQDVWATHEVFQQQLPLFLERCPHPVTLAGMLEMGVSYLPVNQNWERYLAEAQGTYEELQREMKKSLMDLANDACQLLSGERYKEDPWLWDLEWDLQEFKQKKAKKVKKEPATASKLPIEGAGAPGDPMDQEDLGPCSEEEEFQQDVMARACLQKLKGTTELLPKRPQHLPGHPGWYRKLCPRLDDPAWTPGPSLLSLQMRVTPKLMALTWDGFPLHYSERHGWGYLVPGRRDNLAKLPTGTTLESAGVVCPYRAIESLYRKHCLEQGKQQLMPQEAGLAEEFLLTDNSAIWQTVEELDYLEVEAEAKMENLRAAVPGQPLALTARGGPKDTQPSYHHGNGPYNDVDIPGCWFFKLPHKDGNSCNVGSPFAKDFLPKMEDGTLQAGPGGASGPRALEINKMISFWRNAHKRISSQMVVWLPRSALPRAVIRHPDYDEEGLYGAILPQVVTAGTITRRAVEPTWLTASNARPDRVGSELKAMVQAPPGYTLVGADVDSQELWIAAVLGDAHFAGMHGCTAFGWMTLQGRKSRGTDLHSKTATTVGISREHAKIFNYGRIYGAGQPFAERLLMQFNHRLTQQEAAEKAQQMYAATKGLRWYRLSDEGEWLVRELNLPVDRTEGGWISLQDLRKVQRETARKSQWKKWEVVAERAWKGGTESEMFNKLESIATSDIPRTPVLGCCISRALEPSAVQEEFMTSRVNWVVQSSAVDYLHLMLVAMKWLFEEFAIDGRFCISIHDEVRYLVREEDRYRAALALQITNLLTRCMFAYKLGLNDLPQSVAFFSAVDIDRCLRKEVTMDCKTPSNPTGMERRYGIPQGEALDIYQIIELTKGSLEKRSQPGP
T1 sequence (Q9UHN1 1-485 partner): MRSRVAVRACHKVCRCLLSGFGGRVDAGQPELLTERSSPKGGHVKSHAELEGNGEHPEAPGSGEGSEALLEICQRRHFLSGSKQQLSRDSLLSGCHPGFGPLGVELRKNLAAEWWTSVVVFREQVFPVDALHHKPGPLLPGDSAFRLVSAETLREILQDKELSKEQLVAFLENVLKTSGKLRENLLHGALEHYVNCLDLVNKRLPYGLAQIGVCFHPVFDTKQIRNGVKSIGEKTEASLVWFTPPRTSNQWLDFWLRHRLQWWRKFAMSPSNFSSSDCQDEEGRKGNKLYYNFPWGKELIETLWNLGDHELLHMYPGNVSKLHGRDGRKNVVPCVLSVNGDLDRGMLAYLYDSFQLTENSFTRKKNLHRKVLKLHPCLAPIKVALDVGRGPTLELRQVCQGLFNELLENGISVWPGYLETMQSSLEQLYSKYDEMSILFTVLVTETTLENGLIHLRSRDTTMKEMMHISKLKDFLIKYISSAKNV
As to the kind of experiment: DNA polymerization assay, wild type POLγ. The class given is biochemical. The conditions noted are these: 0.1 μM dNTP, read-out: WT AC50 (μM) at 0.1 μM.
Turning to `Cc1csc(-c2ccccc2NS(=O)(=O)c2cc(C)c(Cl)cc2C)n1` [Example 80, 4-chloro-2,5-dimethyl-N-(2-(4-methylthiazol-2-yl)phenyl)benzenesulfonamide], the half-maximal activity concentration (AC50) is more than 100 µM.

Still in this test, the particulars now being: 100 μM dNTP, read-out: WT AC50 (μM) at 100 μM.
Consider `Cc1cc(S(=O)(=O)Nc2cccc(-c3ncc(CO)s3)c2)c(C)cc1Cl` [Example 89, 4-chloro-N-(3-(5-(hydroxymethyl)thiazol-2-yl)phenyl)-2,5-dimethylbenzenesulfonamide], for which the AC50 came to 0.3 µM. Still for that read-out and setting: next, `Cc1cnc(-c2ccc(NS(=O)(=O)c3cc(C)c(Cl)cc3C)cc2)s1` [Example 83, 4-chloro-2,5-dimethyl-N-(4-(5-methylthiazol-2-yl)phenyl)benzenesulfonamide]: 6 µM. Same read-out and setting: for `Cc1cc(S(=O)(=O)Nc2csc(-c3ccccc3)n2)c(C)cc1Cl` [Example 81, 4-chloro-2,5-dimethyl-N-(2-phenylthiazol-4-yl)benzenesulfonamide] the value was 0.2 µM; for `Cc1nc2ccc(NS(=O)(=O)c3cc(C)c(Cl)cc3C)cc2s1` [Example 73, 4-chloro-2,5-dimethyl-N-(2-methylbenzo[d]thiazol-6-yl)benzenesulfonamide], 2 µM; for `Cc1cc(S(=O)(=O)Nc2cccc(-c3ncc(CN(C)C)s3)c2)c(C)cc1Cl` [Example 87, 4-chloro-N-(3-(5-((dimethylamino)methyl)thiazol-2-yl)phenyl)-2,5-dimethylbenzenesulfonamide], 4 µM. On the same count and under the same terms, next, `Cc1cc(S(=O)(=O)Nc2ccc3ccn(C)c3c2)c(C)cc1Cl` [Example 72, 4-chloro-2,5-dimethyl-N-(1-methyl-1H-indol-6-yl)benzenesulfonamide]: 4 µM. Regarding `Cc1cc(S(=O)(=O)Nc2cccc(-c3ncc(C4CC4)s3)c2)c(C)cc1Cl` [Example 76, 4-chloro-N-(3-(5-cyclopropylthiazol-2-yl)phenyl)-2,5-dimethylbenzenesulfonamide], the AC50 was 0.4 µM.
